{
  "source": "patent US20260256748A1",
  "about": "“LANIFIBRANOR FOR USE IN THE TREATMENT OF SPLANCHNIC VASODILATATION IN A PATIENT WITH A LIVER CONDITION” (INVENTIVA, priority 2023, published 2026)",
  "type_in_all_cases": "in vivo, mouse",
  "key": {"[1]": {"tested_on": "Swiss mice with partial portal vein ligation (PPVL)", "assay": "Corrosion vascular casting of venous mesenteric vasculature analyzed by μCT in PPVL model", "conditions": "for mesenteric vascular wall thickness: control 20.31, PPVL 37.53", "protocol": "(§1) Experiments were carried out using Swiss mice (7 to 10 animals per groups). Portal hypertension was induced using the partial portal vein ligation (PPVL) model. A midline abdominal incision was performed and the portal vein was separated from the surrounding tissue. A ligature (silk cut 5-0) was tied around both portal vein and adjacent 27-gauge blunt-tipped needle. Subsequent removal of the needle yielded a calibrated stenosis of the portal vein. One week after the ligation mice received daily lanifibranor (10 mg/kg or 30 mg/kg) or vehicle in a therapeutic setting for 7 days. The effect of lanifibranor on angiogenesis was evaluated by analyzing hepatic and systemic hemodynamics, serum, hepatic and mesenteric histology. The vascular corrosion casting is a technic allowing the capture of the 3D structure of the vascular bed. Briefly the vascular corrosion casts were obtained by inserting, after euthanasia, a 26-gauge catheter into the ileocolic vein, which was then perfused with Batson n°17 solution. The soft tissue was dissolved overnight in a 25% potassium hydroxide solution. The vascular corrosion casts of the venous mesenteric vasculature were analyzed using μCT."}, "[2]": {"tested_on": "Swiss mice with partial portal vein ligation (PPVL)", "assay": "Hemodynamic parameters (flow superior mesenteric artery) in partial portal vein ligation (PPVL) model", "conditions": "lanifibranor 30 mg/kg daily for 7 days, started one week after ligation", "protocol": "as §1"}, "[3]": {"tested_on": "Swiss mice with partial portal vein ligation (PPVL)", "assay": "Spleen weight in partial portal vein ligation (PPVL) model", "conditions": "for spleen weight: control 0.38, PPVL 0.63; for reduction of spleen weight: control 0.38, PPVL 0.63% body weight", "protocol": "as §1"}, "[4]": {"tested_on": "Swiss mice with partial portal vein ligation (PPVL)", "assay": "Immunohistochemistry staining for CD34 (angiogenesis and vascular expansion) in mesenteric area in PPVL model", "protocol": "as §1, with “μCT. Evaluation of the vasculature system with an immunohistochemistry staining for CD34 allow to highlight the increase of blood vessels in the mesenteric area in PPVL animals. […]” for “μCT.”"}},
  "data": [
    {"compound": "O=C(O)CCCc1cc2cc(Cl)ccc2n1S(=O)(=O)c1ccc2ncsc2c1", "note": "[lanifibranor, 4-[1-(1,3-benzothiazol-6-ylsulfonyl)-5-chloroindol-2-yl]butanoic acid]", "values": [
      {"measurement": "reduction of mesenteric vascular wall thickness", "setting": "[1]; 10 mg/kg daily for 7 days", "value": 49.8, "unit": "%"},
      {"measurement": "mesenteric vascular wall thickness", "setting": "[1]; 10 mg/kg daily for 7 days", "value": 28.9, "unit": "µm"},
      {"measurement": "reduction of mesenteric vascular wall thickness", "setting": "[1]; 30 mg/kg daily for 7 days", "value": 52.3, "unit": "%"},
      {"measurement": "mesenteric vascular wall thickness", "setting": "[1]; 30 mg/kg daily for 7 days", "value": 28.5, "unit": "µm"},
      {"measurement": "expansion of the venous mesenteric vasculature", "setting": "[1]; lanifibranor treatment, data not shown", "value": "reduced"},
      {"measurement": "reduction of flow superior mesenteric artery", "setting": "[2]", "value": 51.7, "unit": "%"},
      {"measurement": "spleen weight", "setting": "[3]; 10 mg/kg daily for 7 days", "value": 0.57, "unit": "% body weight"},
      {"measurement": "reduction of spleen weight", "setting": "[3]; 10 mg/kg daily for 7 days", "value": 23.7, "unit": "%"},
      {"measurement": "spleen weight", "setting": "[3]; 30 mg/kg daily for 7 days", "value": 0.49, "unit": "% body weight"},
      {"measurement": "reduction of spleen weight", "setting": "[3]; 30 mg/kg daily for 7 days", "value": 56.1, "unit": "%"},
      {"measurement": "reduction of staining for CD34", "setting": "[4]; 10 mg/kg daily for 7 days", "value": 69.5, "unit": "%"},
      {"measurement": "reduction of staining for CD34", "setting": "[4]; 30 mg/kg daily for 7 days", "value": 135.8, "unit": "%"}
    ]}
  ]
}
